Laboratory results as given in US11285132B2, “Uses of indolinone compounds” (Oncternal Therapeutics, Inc., priority 2016, dated 2022).
pEC50, pIC50: −log10 of the molar value.

Assays:
[1] = test system: DLBLC cell lines (TMD8, HBL1, U2932); experiment: Dose-effect testing in combination with venetoclax; type: cell-based
Description: In each of FIGS. 13-15, the top curve (×) was for the combination therapy, the middle curve (⊚) was for TK216, and the bottom curve (+) was for venetoclax. FIG. 13 is a dose-effect curve for TK216 in combination with venetoclax in the TMD8 cell line. FIG. 14 is a dose-effect curve for TK216 in combination with venetoclax in the U2932 cell line. FIG. 15 is a dose-effect curve for TK216 in combination with venetoclax in the HLB1 cell line.

[2] = test system: TMD-8 tumors; experiment: TMD-8 DLBCL-ABC xenograft model in nude mice; type: in vivo
Protocol: The anti-tumor activity of TK216 was assessed in nude mice harboring TMD-8 tumors, a DLBCL-ABC xenograft model. TK216 was administered orally as a solution at 100 mg/kg BID for 13 days.

[3] = test system: WSU-DLCL2; experiment: 72 hr CellTiter-Glo, DLBCL cell line; type: cell-based; details: Homo sapiens, WSUDLCL2
[4] = test system: Kasumi-1; experiment: 72 hr CellTiter-Glo, AML cell line; type: cell-based; details: Homo sapiens
[5] = test system: A4573 cells; experiment: Proliferation of Ewing sarcoma A4573 cell line; type: cell-based; details: A4573 cells (EWS-FLI1 expressing Ewing sarcoma cell line); read-out: EC50, inhibition of proliferation
Description: TK216 is a first in class, small molecule that directly binds EWS-FLI1 inhibiting the biological activity of ETS-family transcription factor oncoproteins and is currently under clinical investigation in patients with Ewing sarcoma.

[6] = test system: SU-DHL-4; experiment: Combination with other agents, MTT, Chou-Talalay combination index; type: cell-based
Description: (§1) Y-axis: CI values. In each box-plot, the line in the middle of the box represents the median and the box extends from the 25th to the 75th percentile (interquartile range, IQ); the whiskers extend to the upper and lower adjacent values (i.e., ±1.5 IQ); outside values have been omitted from the figure. CIs for TK-216/rituximab in TMD8, TK-216/rituximab in Karpas422, TK-216/rituximab in OCI-LY-10 are not plotted due to CI values >3. Combinations tested included bendamustine, bortezomib, ibrutinib, idelalisib, lenalidomide, OTX015 (birabresib, CAS No. 202590-98-5), PQR309 (bimiralisib, CAS No. 1225037-39-7 (free base)), selinexor, venetoclax, and vincristine.
(§2) Cell lines were exposed to YK-4-279 or TK-216, alone or in combination with other compounds, for 72 h using a Tecan D300e Digital Dispenser and 96 well plates. Cell proliferation was measured with MTT. Synergy was determined with the Chou-Talalay combination index. Gene expression profiling (GEP) was performed with the Illumina HumanHT 12 Expression BeadChips. In vivo studies were done in NOD-SCID mice and treatments started with 60 mm3 tumor volumes sc.

[7] = test system: OCI-LY-10; experiment: as above; type: cell-based
Description: as §1, §2

[8] = test system: TMD8; experiment: as above; type: cell-based
Description: as §1, §2

[9] = test system: KARPAS422; experiment: as above; type: cell-based
Description: as §1, §2

[10] = target: T1, SPIB to DDX5 (Homo sapiens, UniProt Q01892); experiment: Co-IP of SPIB with helicases in ABC DLBCL cell lines; type: cell-based; details: 500 nM, 4-10 h
T1 construct: endogenous in cells
T1 sequence (Q01892 whole entry): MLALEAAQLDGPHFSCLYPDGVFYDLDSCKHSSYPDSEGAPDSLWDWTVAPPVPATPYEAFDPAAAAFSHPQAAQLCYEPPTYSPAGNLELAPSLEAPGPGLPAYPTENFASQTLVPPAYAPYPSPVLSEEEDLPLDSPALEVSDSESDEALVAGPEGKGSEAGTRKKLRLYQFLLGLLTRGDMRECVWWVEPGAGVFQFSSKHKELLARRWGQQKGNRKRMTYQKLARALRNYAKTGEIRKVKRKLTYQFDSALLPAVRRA
Description: (§3) With the aim to understand the mechanism of action of YK-4-279 and TK-216, the baseline RNA expression levels of the different ETS factors were correlated with sensitivity to the drugs. SPIB was the gene presenting the most significant negative correlation with both YK-4-279 and TK-216, especially among the ABC DLBCL cell lines (P<0.05). SPIB is a known oncogene for ABC DLBCL (Lenz et al, PNAS 2008) and is involved in the response to lenalidomide in ABC DLBCL (Yang et al, Cancer Cell 2012). YK-4-279 inhibits the binding of EWS1-FLI1 to the helicases RHA and DDX5 (Selvanathan et al, PNAS 2012). Thus, it was assessed whether YK-4-279 and TK-216 can have a similar effect on SPIB and whether they induce cellular effects similar to lenalidomide. […] In ABC DLBCL, the ETS inhibitor YK-4-279 and its clinical derivative TK-216 interfere with SPIB and helicases involved in RNA editing. Moreover, both compounds act similarly to lenalidomide inhibiting IRF4 and upregulating IRF7 and synergize with the IMID in both ABC DLBCL and MCL.

[11] = target: T2, SPIB to RHA (Homo sapiens, UniProt Q01892); experiment: as above; type: cell-based; details: 500 nM, 4-10 h
T2 construct: endogenous in cells
T2 sequence (Q01892 whole entry): as above
Description: as §3

[12] = test system: DOHH2; experiment: 72 hr CellTiter-Glo, DLBCL cell line; type: cell-based; details: Homo sapiens, DOHH-2
[13] = test system: myeloid cell lines (HL-60, Kasumi-1, ML-2, MOLM-13, MOLM-16, and THP-1); experiment: Viability and apoptosis in myeloid cell lines; type: cell-based
Description: TK216 also had anti-proliferative effects, causes cell cycle arrest, and induces apoptosis in a panel of AML and DLBCL cell lines with deregulated ETS family members. […] In vivo efficacy studies in xenograft models of DLBCL indicated anti-tumor activity consistent with in vitro findings, confirming the utility and efficacy of TK216 in the treatment of AML and DLBCL by targeting the aberrant expression and translocations in the ETS-family of transcription factors, which contribute to the pathogenesis of the disease.

O=C(CC1(O)C(=O)Nc2c(Cl)ccc(Cl)c21)c1ccc(C2CC2)cc1 (stereo not drawn) [TK216, 4,7-Dichloro-3-(2-(4-cyclopropylphenyl)-2-oxoethyl)-3-hydroxyindolin-2-one]
combination effect with venetoclax, dose-effect [1]: synergistic effect across doses | tumor growth inhibition ([2]; 100 mg/kg BID orally, 13 days, vs vehicle control): 77% | tolerability ([2]; daily oral administration, xenograft models of DLBCL): well-tolerated | pIC50 [3]: 6.05 | pIC50 [4]: 6.41 | pEC50 [5]: > 6.70 | effect of TK216 in combination with OTX015 ([6]; with OTX015): No benefit effects | effect of TK216 in combination with PQR309 ([6]; with PQR309): additive effect | effect of TK216 in combination with bendamustine ([6]; with bendamustine): No benefit effects | effect of TK216 in combination with idelalisib ([6]; with idelalisib): No benefit effects | effect of TK216 in combination with selinexor ([6]; with selinexor): No benefit effects | effect of TK216 in combination with venetoclax ([6]; with venetoclax): No benefit effects | effect of TK216 in combination with vincristine ([6]; with vincristine): Synergism | effect of TK216 in combination with OTX015 ([7]; with OTX015): additive effect | effect of TK216 in combination with PQR309 ([7]; with PQR309): No benefit effects | effect of TK216 in combination with bendamustine ([7]; with bendamustine): No benefit effects | effect of TK216 in combination with bortezomib ([7]; with bortezomib): No benefit effects | effect of TK216 in combination with ibrutinib ([7]; with ibrutinib): additive effect | effect of TK216 in combination with idelalisib ([7]; with idelalisib): Synergism | effect of TK216 in combination with lenalidomide ([7]; with lenalidomide): Synergism | CI values, TK-216/rituximab ([7]; with rituximab, not plotted): > 3 | effect of TK216 in combination with selinexor ([7]; with selinexor): No benefit effects | effect of TK216 in combination with venetoclax ([7]; with venetoclax): Synergism | effect of TK216 in combination with vincristine ([7]; with vincristine): additive effect | effect of TK216 in combination with OTX015 ([8]; with OTX015): additive effect | effect of TK216 in combination with PQR309 ([8]; with PQR309): additive effect | effect of TK216 in combination with bendamustine ([8]; with bendamustine): No benefit effects | effect of TK216 in combination with bortezomib ([8]; with bortezomib): Synergism | effect of TK216 in combination with ibrutinib ([8]; with ibrutinib): additive effect | effect of TK216 in combination with lenalidomide ([8]; with lenalidomide): Synergism | effect of TK216 in combination with lidelalisib ([8]; with lidelalisib): additive effect | CI values, TK-216/rituximab ([8]; with rituximab, not plotted): > 3 | effect of TK216 in combination with selinexor ([8]; with selinexor): additive effect | effect of TK216 in combination with venetoclax ([8]; with venetoclax): Synergism | effect of TK216 in combination with vincristine ([8]; with vincristine): No benefit effects | effect of TK216 in combination with OTX015 ([9]; KARPAS422, with OTX015): Synergism | effect of TK216 in combination with PQR309 ([9]; KARPAS422, with PQR309): additive effect | effect of TK216 in combination with bendamustine ([9]; KARPAS422, with bendamustine): additive effect | effect of TK216 in combination with idelalisib ([9]; KARPAS422, with idelalisib): Synergism | effect of TK216 in combination with selinexor ([9]; KARPAS422, with selinexor): additive effect | effect of TK216 in combination with venetoclax ([9]; KARPAS422, with venetoclax): Synergism | effect of TK216 in combination with vincristine ([9]; KARPAS422, with vincristine): additive effect | CI values, TK-216/rituximab ([9]; Karpas422, with rituximab, not plotted): > 3 | binding of SPIB to DDX5 [10]: to a lesser extent, to DDX5 was decreased | binding of SPIB to RHA [11]: decreased | pIC50 [12]: 6.80 | cellular viability [13]: decrease in cellular viability | apoptosis of cells ([13]; 48 hours): induced dose-dependent apoptosis
